In data set [1] the test system is bicistronic HCV replicon (replicon RNA, GenBank Accession No. AJ242654). Description: HCV Replicon Assay. The format is cell-based. The note with it: Hepatitis C virus, 72 h, read-out: Replicon IC50. On the technique in general: Replicon systems follow genome replication, usually without infectious particles.

What is called IC50 is the point on the concentration scale where inhibition reaches its midpoint. A word on the melting point: it is the temperature, or range, at which the solid turns liquid.

Molecule `C[C@H](NS(=O)(=O)c1ccc(-c2c(C#N)c3c(F)cc(OC(F)F)cc3n2C2CCC2)nc1)C(F)(F)F` [compound 797, 6-[3-cyano-1-cyclobutyl-6-(difluoromethoxy)-4-fluoro-1H-indol-2-yl]-N-[(2S)-1,1,1-trifluoropropan-2-yl]pyridine-3-sulfonamide] gave a melting point of 210 to 212 °C. Moreover, the 50% inhibitory concentration (IC50) in data set [1] is below 500 nM.
Taken in the same sequence, the figures for `CCc1cc2c(cc1F)c(C#N)c(-c1ccc(S(=O)(=O)N[C@@H](C)C(F)(F)F)cn1)n2-c1cncnc1` [compound 963, 6-[3-cyano-6-ethyl-5-fluoro-1-(pyrimidin-5-yl)-1H-indol-2-yl]-N-[(2S)-1,1,1-trifluoropropan-2-yl]pyridine-3-sulfonamide] were 250 to 257 °C and below 500 nM.
As for `N#Cc1c(-c2ncc(S(=O)(=O)NC(CF)CF)cn2)n(C2CCCCC2)c2cc(OC(F)(F)F)ccc12` [compound 306, 2-[3-cyano-1-cyclohexyl-6-(trifluoromethoxy)-1H-indol-2-yl]-N-(1,3-difluoropropan-2-yl)pyrimidine-5-sulfonamide], the melting point lay within 168 to 170 °C. In addition, the IC50 in data set [1] lay in the range of 500 to 2000 nM.
With `Cc1cc(-c2c(C#N)c3cc(F)ccc3n2-c2ncccn2)ncc1S(=O)(=O)N[C@@H](C)C(F)(F)F` [compound 848, 6-[3-cyano-5-fluoro-1-(pyrimidin-2-yl)-1H-indol-2-yl]-4-methyl-N-[(2S)-1,1,1-trifluoropropan-2-yl]pyridine-3-sulfonamide], the melting point is 199 to 204 °C. Further, the IC50 in data set [1] is below 500 nM.
In turn, `COc1ccc(-n2c(-c3ccc(S(=O)(=O)NC(CF)CF)cn3)c(C#N)c3cc(F)ccc32)cc1` [compound 336, 6-[3-cyano-5-fluoro-1-(4-methoxyphenyl)-1H-indol-2-yl]-N-(1,3-difluoropropan-2-yl)pyridine-3-sulfonamide] gave a melting point of 198 to 200 °C. Moreover, in data set [1], the IC50 was below 500 nM.
The matching figures for `CCCn1c(-c2ccc(S(=O)(=O)N[C@H](C)C(F)(F)F)cn2)c(C#N)c2cc(F)c(OC(F)F)cc21` [compound 788, 6-[3-cyano-6-(difluoromethoxy)-5-fluoro-1-propyl-1H-indol-2-yl]-N-[(2R)-1,1,1-trifluoropropan-2-yl]pyridine-3-sulfonamide]: 160 to 166 °C and below 500 nM.
Take `CC(C)NS(=O)(=O)c1cnc(-c2c(C#N)c3cc(F)ccc3n2C2CCCC2)nc1` [compound 603, 2-(3-cyano-1-cyclopentyl-5-fluoro-1H-indol-2-yl)-N-(propan-2-yl)pyrimidine-5-sulfonamide]: the melting point was 217 to 222 °C. For the same molecule, the 50% inhibitory concentration (IC50) in data set [1] is below 500 nM.
`Cc1ccc2c(C#N)c(-c3ccc(S(=O)(=O)N[C@H](C)C(F)(F)F)cn3)n(C3CCCC3)c2c1` [compound 214, 6-(3-cyano-1-cyclopentyl-6-methyl-1H-indol-2-yl)-N-[(2R)-1,1,1-trifluoropropan-2-yl]pyridine-3-sulfonamide] registered a melting point of 176 to 182 °C. The IC50 in data set [1] was below 500 nM.
`Cc1ccc2c(C#N)c(-c3ccc(S(=O)(=O)NC4CC(F)(F)C4)cn3)n(C3CCC3)c2c1` [compound 245, 6-(3-cyano-1-cyclobutyl-6-methyl-1H-indol-2-yl)-N-(3,3-difluorocyclobutyl)pyridine-3-sulfonamide] gave a melting point of 165 to 166 °C. Further, in data set [1], the IC50 was below 500 nM.
Regarding `C[C@H](NS(=O)(=O)c1ccc(-c2c(C#N)c3cc(F)c(C4CC4)cc3n2-c2ccc(F)cn2)nc1)C(F)(F)F` [compound 818, 6-[3-cyano-6-cyclopropyl-5-fluoro-1-(5-fluoropyridin-2-yl)-1H-indol-2-yl]-N-[(2S)-1,1,1-trifluoropropan-2-yl]pyridine-3-sulfonamide], the melting point fell in the range of 240 to 242 °C. Besides, the IC50 in data set [1] was below 500 nM.
`C[C@H](NS(=O)(=O)c1ccc(-c2c(C#N)c3cc(F)c(C4CC4)cc3n2C2CCCC2)nc1)C(F)(F)F` [compound 661, 6-(3-cyano-1-cyclopentyl-6-cyclopropyl-5-fluoro-1H-indol-2-yl)-N-[(2S)-1,1,1-trifluoropropan-2-yl]pyridine-3-sulfonamide] yielded a melting point of 189 to 190 °C. Besides, the IC50 in data set [1] was below 500 nM.
In turn, `C[C@H](NS(=O)(=O)c1ccc(-c2c(C#N)c3ccc(Cl)cc3n2-c2ccccn2)nc1)C1CC1` [compound 488, 6-[6-chloro-3-cyano-1-(pyridin-2-yl)-1H-indol-2-yl]-N-[(1S)-1-cyclopropylethyl]pyridine-3-sulfonamide] came in with a melting point of 199 to 201 °C. In data set [1], the IC50 is below 500 nM.
In turn, `Cc1cc(F)c2c(C#N)c(-c3ccc(S(=O)(=O)N[C@@H](C)C(F)(F)F)cn3)n(C3CCC3)c2c1` [compound 627, 6-(3-cyano-1-cyclobutyl-4-fluoro-6-methyl-1H-indol-2-yl)-N-[(2S)-1,1,1-trifluoropropan-2-yl]pyridine-3-sulfonamide] returned a melting point of 205 to 210 °C. The IC50 in data set [1] is below 500 nM.
`Cc1cc2c(cc1O)c(C(N)=O)c(-c1ccc(S(=O)(=O)N[C@@H](C)C(F)(F)F)cn1)n2C1CCC1` [compound 833, 1-cyclobutyl-5-hydroxy-6-methyl-2-(5-{[(2S)-1,1,1-trifluoropropan-2-yl]sulfamoyl}pyridin-2-yl)-1H-indole-3-carboxamide] had a melting point of 256 to 258 °C. Besides, in data set [1], the IC50 was in the range of 500 to 2000 nM.
Taken in the same sequence, the figures for `Cc1cc2c(cc1F)c(C#N)c(-c1ccc(S(=O)(=O)N[C@@H](C)C(F)(F)F)cn1)n2-c1ccc(F)nc1` [compound 1015, 6-[3-cyano-5-fluoro-1-(6-fluoropyridin-3-yl)-6-methyl-1H-indol-2-yl]-N-[(2S)-1,1,1-trifluoropropan-2-yl]pyridine-3-sulfonamide] were 246.8 to 252.7 °C and below 500 nM.
The matching figures for `C[C@@H](NS(=O)(=O)c1ccc(-c2c(C#N)c3cc(F)ccc3n2C2CCCCC2)nc1)C(F)(F)F` [compound 261, 6-(3-cyano-1-cyclohexyl-5-fluoro-1H-indol-2-yl)-N-[(2R)-1,1,1-trifluoropropan-2-yl]pyridine-3-sulfonamide]: 208 to 210 °C and below 500 nM.
In turn, `COc1cc2c(cc1F)c(C#N)c(-c1ncc(S(=O)(=O)NC(CF)CF)cn1)n2C1CCC1` [compound 150, 2-(3-cyano-1-cyclobutyl-5-fluoro-6-methoxy-1H-indol-2-yl)-N-(1,3-difluoropropan-2-yl)pyrimidine-5-sulfonamide] displayed a melting point of 245 to 247 °C. In data set [1], the IC50 was below 500 nM.
The matching figures for `CS(=O)(=O)Nc1ccc(-c2c(C#N)c3ccc(C4CC4)cc3n2C2CCC2)cn1` [compound 287, N-[5-(3-cyano-1-cyclobutyl-6-cyclopropyl-1H-indol-2-yl)pyridin-2-yl]methanesulfonamide]: 239 to 241 °C and 500 to 2000 nM.
In turn, `Cc1ccc2c(C#N)c(-c3ccc(S(=O)(=O)N[C@@H](C)C(F)(F)F)cn3)n(CC3CC3)c2c1` [compound 353, 6-[3-cyano-1-(cyclopropylmethyl)-6-methyl-1H-indol-2-yl]-N-[(2S)-1,1,1-trifluoropropan-2-yl]pyridine-3-sulfonamide] yielded a melting point of 165 to 168 °C. Moreover, the IC50 in data set [1] is below 500 nM.

These data come from patent publication US8735414B2 (priority 2009, dated 2014).
